In the NIST ThermoML archive (doi:10.1021/je300873x):

Experiment: mn = molality of the nth substance listed, in mol/kg
Settings: for surface tension liquid-gas: Pendant drop shape; for electrical conductivity: Liquid, Digital conductivity meter

CCCCCCCCCCCCCC[N+](C)(C)CCO.[Br-] [N-tetradecyl-hydroxyethyl-dimethyl ammonium bromide] + O
Settings	electrical conductivity [S/m]	surface tension liquid-gas [mN/m]
298.15 K, m1 = 0.0003	–	66.02
298.15 K, m1 = 0.0006	–	60.97
298.15 K, m1 = 0.00081	–	58.35
298.15 K, m1 = 0.00101	–	55.52
298.15 K, m1 = 0.00151	–	49.52
298.15 K, m1 = 0.00201	–	45.03
298.15 K, m1 = 0.00252	–	41.15
298.15 K, m1 = 0.00258	0.0207	–
298.15 K, m1 = 0.00268	0.0215	–
298.15 K, m1 = 0.00279	0.0223	–
298.15 K, m1 = 0.00291	0.0232	–
298.15 K, m1 = 0.00302	–	38.35
298.15 K, m1 = 0.00303	0.0241	–
298.15 K, m1 = 0.00317	0.0251	–
298.15 K, m1 = 0.00332	0.0261	–
298.15 K, m1 = 0.00349	0.027	–
298.15 K, m1 = 0.00367	0.0275	–
298.15 K, m1 = 0.00388	0.028	–
298.15 K, m1 = 0.00403	–	37.57
298.15 K, m1 = 0.00411	0.0285	–
298.15 K, m1 = 0.00436	0.029	–
298.15 K, m1 = 0.00465	0.0296	–
298.15 K, m1 = 0.00499	0.0302	–
298.15 K, m1 = 0.00503	–	37.62
298.15 K, m1 = 0.00537	0.0309	–
298.15 K, m1 = 0.00582	0.0318	–
298.15 K, m1 = 0.00604	–	37.61
298.15 K, m1 = 0.00635	0.0328	–
298.15 K, m1 = 0.00698	0.034	–
298.15 K, m1 = 0.00806	–	37.61
303.15 K, m1 = 0.00258	0.0231	–
303.15 K, m1 = 0.00268	0.024	–
303.15 K, m1 = 0.00279	0.0249	–
303.15 K, m1 = 0.0029	0.026	–
303.15 K, m1 = 0.00303	0.0269	–
303.15 K, m1 = 0.00317	0.028	–
303.15 K, m1 = 0.00332	0.0292	–
303.15 K, m1 = 0.00348	0.0303	–
303.15 K, m1 = 0.00367	0.031	–
303.15 K, m1 = 0.00387	0.0316	–
303.15 K, m1 = 0.0041	0.0322	–
303.15 K, m1 = 0.00436	0.0328	–
303.15 K, m1 = 0.00465	0.0335	–
303.15 K, m1 = 0.00498	0.0342	–
303.15 K, m1 = 0.00536	0.035	–
303.15 K, m1 = 0.00581	0.036	–
303.15 K, m1 = 0.00634	0.0372	–
303.15 K, m1 = 0.00697	0.0385	–
308.15 K, m1 = 0.00258	0.0254	–
308.15 K, m1 = 0.00268	0.0263	–
308.15 K, m1 = 0.00278	0.0274	–
308.15 K, m1 = 0.0029	0.0283	–
308.15 K, m1 = 0.00303	0.0295	–
308.15 K, m1 = 0.00316	0.0308	–
308.15 K, m1 = 0.00331	0.0321	–
308.15 K, m1 = 0.00348	0.0334	–
308.15 K, m1 = 0.00366	0.0346	–
308.15 K, m1 = 0.00387	0.0352	–
308.15 K, m1 = 0.00409	0.0359	–
308.15 K, m1 = 0.00435	0.0366	–
308.15 K, m1 = 0.00464	0.0374	–
308.15 K, m1 = 0.00497	0.0383	–
308.15 K, m1 = 0.00535	0.0393	–
308.15 K, m1 = 0.0058	0.0404	–
308.15 K, m1 = 0.00633	0.0418	–
308.15 K, m1 = 0.00696	0.0435	–
313.15 K, m1 = 0.00257	0.0278	–
313.15 K, m1 = 0.00267	0.0287	–
313.15 K, m1 = 0.00278	0.0298	–
313.15 K, m1 = 0.00289	0.0311	–
313.15 K, m1 = 0.00302	0.0325	–
313.15 K, m1 = 0.00316	0.0339	–
313.15 K, m1 = 0.00331	0.0354	–
313.15 K, m1 = 0.00347	0.037	–
313.15 K, m1 = 0.00366	0.0385	–
313.15 K, m1 = 0.00386	0.0395	–
313.15 K, m1 = 0.00409	0.0405	–
313.15 K, m1 = 0.00434	0.0414	–
313.15 K, m1 = 0.00463	0.0421	–
313.15 K, m1 = 0.00496	0.0431	–
313.15 K, m1 = 0.00534	0.0441	–
313.15 K, m1 = 0.00579	0.0455	–
313.15 K, m1 = 0.00631	0.0472	–
313.15 K, m1 = 0.00695	0.0491	–
318.15 K, m1 = 0.00257	0.0307	–
318.15 K, m1 = 0.00267	0.0317	–
318.15 K, m1 = 0.00277	0.0329	–
318.15 K, m1 = 0.00289	0.0343	–
318.15 K, m1 = 0.00301	0.0356	–
318.15 K, m1 = 0.00315	0.037	–
318.15 K, m1 = 0.0033	0.0385	–
318.15 K, m1 = 0.00347	0.0407	–
318.15 K, m1 = 0.00365	0.0426	–
318.15 K, m1 = 0.00385	0.044	–
318.15 K, m1 = 0.00408	0.0454	–
318.15 K, m1 = 0.00433	0.0465	–
318.15 K, m1 = 0.00462	0.0475	–
318.15 K, m1 = 0.00495	0.0488	–
318.15 K, m1 = 0.00533	0.0499	–
318.15 K, m1 = 0.00578	0.0514	–
318.15 K, m1 = 0.0063	0.0531	–
318.15 K, m1 = 0.00693	0.0552	–
323.15 K, m1 = 0.00256	0.0332	–
323.15 K, m1 = 0.00266	0.0345	–
323.15 K, m1 = 0.00277	0.0357	–
323.15 K, m1 = 0.00288	0.0372	–
323.15 K, m1 = 0.00301	0.0389	–
323.15 K, m1 = 0.00314	0.0404	–
323.15 K, m1 = 0.00329	0.0423	–
323.15 K, m1 = 0.00346	0.0442	–
323.15 K, m1 = 0.00364	0.0465	–
323.15 K, m1 = 0.00384	0.0487	–
323.15 K, m1 = 0.00407	0.0506	–
323.15 K, m1 = 0.00432	0.0522	–
323.15 K, m1 = 0.00461	0.0535	–
323.15 K, m1 = 0.00494	0.0547	–
323.15 K, m1 = 0.00532	0.0563	–
323.15 K, m1 = 0.00576	0.0581	–
323.15 K, m1 = 0.00629	0.0598	–
323.15 K, m1 = 0.00692	0.062	–
